Reference: US9079859B2, “Synthetic lethal targeting of glucose transport” (AUCKLAND UNISERVICES LIMITED, priority 2011, dated 2015)

Tests used:
RCC4 cells = experiment: Necrotic cell death by trypan blue, RCC4; type: cell-based; settings: 5 μM, 3 days
Protocol: Cell Viability Assays. For 2,3-bis[2-methoxy-4-nitro-5-sulfophenyl]-2H-tetrazolium-5-carboxanilide (XTT) assays, five thousand cells were plated in 96-well plates. The next day, vehicle (DMSO) or drug was added by serial dilution. Four days later, media were aspirated, XTT solution (0.3 mg/ml of XTT (Sigma), […] N-methyl dibenxopyrazine methyl sulfate (Sigma) in phenol red-free media) was added, and the plates were incubated at 37° C. for 1-2 hours. Metabolism of XTT was quantified by measuring the absorbance at 450 nm. IC50s were calculated using linear interpolation. For clonogenic survival assays, three hundred cells were plated per 60 mm tissue culture dish. The cells were allowed to attach overnight and then treated with vehicle or drug for 14 days. Colonies were fixed and stained with crystal violet (0.1% crystal violet in 95% ethanol). All conditions were measured in triplicate and each experiment was done in duplicate or triplicate. To determine necrosis, cells were treated with drug for a given time point. Media and cells were collected, centrifugated, and resuspended in 0.4% trypan blue (Invitrogen). Live and dead cells were counted on a hematocytometer.

[1] = test system: RCC4 cells with HIF-1β silenced; experiment: Glucose uptake in RCC4 cells with siRNA to HIF-1β; type: cell-based
Source text: To further investigate the relationship between HIF and STF-31 toxicity, we silenced HIF-1β in RCC4 cells and assessed its affect on glucose uptake (FIG. 6D). Transiently inhibiting HIF-1β, the constitutively expressed binding partner of HIF-1α and HIF-2α reduces HIF activity in RCC4 cells to the levels found in wild-type VHL cells. Glucose uptake was insensitive to treatment with STF-31 when the HIF-1β was silenced in RCC4 cells, further supporting the concept that the HIF-dependent glucose uptake was responsible for the differential toxicity of STF-31 to VHL-deficient renal carcinomas (FIG. 2E).
Glucose Uptake. One hundred thousand cells were plated per well in a six-well plate. The next day, cells were treated with the indicated concentration of drug and incubated for the indicated time. Cells were then washed twice with phosphate-buffered saline, incubated in low-glucose medium for 30 minutes, and 3H-2-deoxyglucose (0.5 μCi) was added in 1 ml of glucose-free media for an additional hour. Cells were washed twice in PBS and lysed (0.2 N NaOH and 0.2% sodium dodecyl sulfate). Glucose uptake was quantified with a scintillation counter.

[2] = test system: VHL-deficient and wild-type VHL cells; experiment: Oxygen consumption; type: cell-based
Protocol: Oxygen Consumption. Following treatment with vehicle or drug, cells were trypsinized, suspended at 5 million cells per ml in DMEM+10% FCS, and oxygen consumption was measured in 0.5 ml volume using an Oxytherm electrode unit (Hansatech).

50 different kinases = experiment: In vitro kinase panel (Millipore Kinase Profiler); type: biochemical
Protocol: (§1) Cell Culture and Reagents. All cells were grown in DMEM+10% FCS. ACHN and ACHN shVHL were a kind gift from George V. Thomas (UCLA). HIF overexpressing clones were described previously (Sutphin et al., Cancer Res, 67:5896-5905 (2007)). Transfection of RNA oligos were performed with DnarmaFECT Reagent 1 (Dharmcon), according to manufacturer's directions. ON-TARGETplus SMART pools against HIF-1 R/ARNT were purchased from Dharmacon. Inducible shRNAmir to GLUT1 was purchased from Open Biosystems. GLUT1 was detected with anti-GLUT1 antibody from NeoMarkers/LabVision/Fisher. For immunofluorescent studies, GLUT1, GLUT2, and GLUT3 antibodies were purchased from R&D. Pyruvate/lactate levels and hexokinase activity were both measured by fluorometric assay (BioVision and Sigma-Aldrich, respectively). ATP levels were measured by bioluminescence assay (ATP Determination Kit from Molecular Probes/Invitrogen). In vitro kinase activities were performed by Millipore Kinase Profiler.

UMRC6/VHL = experiment: RCC panel sensitivity (Table 2); type: cell-based; settings: VHL wild-type
Axl = target: T1, Axl (Homo sapiens, UniProt P30530); experiment: Kinase Profiler; type: biochemical; settings: STF-31 10 μM
T1 construct: purchased Millipore (Kinase Profiler service)
T1 sequence (P30530 26-894, species assumed): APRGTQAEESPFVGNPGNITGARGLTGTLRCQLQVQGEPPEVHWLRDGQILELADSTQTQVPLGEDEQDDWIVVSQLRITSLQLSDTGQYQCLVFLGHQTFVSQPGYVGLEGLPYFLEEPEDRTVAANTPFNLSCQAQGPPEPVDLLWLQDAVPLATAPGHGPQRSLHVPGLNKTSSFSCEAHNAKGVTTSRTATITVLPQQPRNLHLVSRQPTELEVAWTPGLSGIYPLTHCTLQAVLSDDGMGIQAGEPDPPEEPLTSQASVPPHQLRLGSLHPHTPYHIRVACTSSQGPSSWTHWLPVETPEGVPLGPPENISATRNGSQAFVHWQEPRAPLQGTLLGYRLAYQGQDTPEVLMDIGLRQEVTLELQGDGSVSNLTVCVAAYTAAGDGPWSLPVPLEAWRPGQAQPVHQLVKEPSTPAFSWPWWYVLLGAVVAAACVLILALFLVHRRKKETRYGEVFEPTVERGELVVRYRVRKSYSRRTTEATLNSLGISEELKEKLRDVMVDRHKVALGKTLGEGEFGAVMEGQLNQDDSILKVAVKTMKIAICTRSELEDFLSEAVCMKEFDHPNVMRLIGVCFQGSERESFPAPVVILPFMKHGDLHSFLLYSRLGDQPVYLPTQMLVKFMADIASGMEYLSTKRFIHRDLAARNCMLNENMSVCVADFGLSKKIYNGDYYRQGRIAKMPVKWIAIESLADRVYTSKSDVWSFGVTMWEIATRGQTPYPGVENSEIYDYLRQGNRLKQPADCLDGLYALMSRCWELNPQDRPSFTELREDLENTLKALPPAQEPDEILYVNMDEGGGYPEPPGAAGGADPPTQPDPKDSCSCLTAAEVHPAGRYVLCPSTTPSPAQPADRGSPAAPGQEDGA
Protocol: as §1

DYRK2 = target: T2, DYRK2 (Homo sapiens, UniProt Q92630); experiment: Kinase Profiler; type: biochemical; settings: STF-31 10 μM
T2 construct: purchased Millipore (Kinase Profiler service)
T2 sequence (Q92630 whole entry, species assumed): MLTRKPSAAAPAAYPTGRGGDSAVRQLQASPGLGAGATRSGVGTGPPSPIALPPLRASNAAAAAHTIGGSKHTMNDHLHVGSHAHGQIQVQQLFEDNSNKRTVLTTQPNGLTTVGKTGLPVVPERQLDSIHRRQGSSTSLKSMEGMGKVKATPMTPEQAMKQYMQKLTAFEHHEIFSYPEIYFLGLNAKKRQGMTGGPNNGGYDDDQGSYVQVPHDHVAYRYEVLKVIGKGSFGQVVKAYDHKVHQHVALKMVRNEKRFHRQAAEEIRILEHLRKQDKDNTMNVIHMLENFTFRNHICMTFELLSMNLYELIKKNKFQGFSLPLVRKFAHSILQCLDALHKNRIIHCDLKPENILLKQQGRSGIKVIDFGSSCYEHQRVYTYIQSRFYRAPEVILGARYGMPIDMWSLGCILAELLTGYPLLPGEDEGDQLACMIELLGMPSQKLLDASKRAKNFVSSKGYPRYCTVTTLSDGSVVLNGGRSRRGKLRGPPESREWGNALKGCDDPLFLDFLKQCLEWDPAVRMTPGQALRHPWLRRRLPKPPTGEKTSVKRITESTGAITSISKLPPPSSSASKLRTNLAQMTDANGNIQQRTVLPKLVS
Protocol: as §1

Hck = target: T3, Hck (Homo sapiens, UniProt P08631); experiment: Kinase Profiler; type: biochemical; settings: STF-31 10 μM
T3 construct: purchased Millipore Kinase Profiler
T3 sequence (P08631 whole entry, species assumed): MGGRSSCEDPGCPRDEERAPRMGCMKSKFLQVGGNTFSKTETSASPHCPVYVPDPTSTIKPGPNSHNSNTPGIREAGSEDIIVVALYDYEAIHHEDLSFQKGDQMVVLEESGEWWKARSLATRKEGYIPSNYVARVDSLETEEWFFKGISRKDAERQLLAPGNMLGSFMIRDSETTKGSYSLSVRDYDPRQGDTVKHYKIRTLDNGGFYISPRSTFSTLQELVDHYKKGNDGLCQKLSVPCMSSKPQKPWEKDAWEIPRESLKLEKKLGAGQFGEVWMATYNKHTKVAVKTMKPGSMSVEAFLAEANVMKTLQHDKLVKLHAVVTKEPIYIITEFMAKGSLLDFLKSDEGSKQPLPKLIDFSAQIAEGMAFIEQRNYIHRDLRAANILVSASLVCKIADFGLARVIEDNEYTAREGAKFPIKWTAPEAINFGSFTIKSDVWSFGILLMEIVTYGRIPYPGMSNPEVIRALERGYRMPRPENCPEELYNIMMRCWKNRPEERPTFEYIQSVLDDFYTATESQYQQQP
Protocol: as §1

IGF-1R = target: T4, IGF-1R (Homo sapiens, UniProt P08069); experiment: Kinase Profiler; type: biochemical; settings: STF-31 10 μM
T4 construct: purchased Millipore Kinase Profiler
Protocol: as §1

IKKα = target: T5, IKKα (Homo sapiens, UniProt O15111); experiment: Kinase Profiler; type: biochemical; settings: STF-31 10 μM
T5 construct: purchased Millipore Kinase Profiler
T5 sequence (O15111 whole entry, species assumed): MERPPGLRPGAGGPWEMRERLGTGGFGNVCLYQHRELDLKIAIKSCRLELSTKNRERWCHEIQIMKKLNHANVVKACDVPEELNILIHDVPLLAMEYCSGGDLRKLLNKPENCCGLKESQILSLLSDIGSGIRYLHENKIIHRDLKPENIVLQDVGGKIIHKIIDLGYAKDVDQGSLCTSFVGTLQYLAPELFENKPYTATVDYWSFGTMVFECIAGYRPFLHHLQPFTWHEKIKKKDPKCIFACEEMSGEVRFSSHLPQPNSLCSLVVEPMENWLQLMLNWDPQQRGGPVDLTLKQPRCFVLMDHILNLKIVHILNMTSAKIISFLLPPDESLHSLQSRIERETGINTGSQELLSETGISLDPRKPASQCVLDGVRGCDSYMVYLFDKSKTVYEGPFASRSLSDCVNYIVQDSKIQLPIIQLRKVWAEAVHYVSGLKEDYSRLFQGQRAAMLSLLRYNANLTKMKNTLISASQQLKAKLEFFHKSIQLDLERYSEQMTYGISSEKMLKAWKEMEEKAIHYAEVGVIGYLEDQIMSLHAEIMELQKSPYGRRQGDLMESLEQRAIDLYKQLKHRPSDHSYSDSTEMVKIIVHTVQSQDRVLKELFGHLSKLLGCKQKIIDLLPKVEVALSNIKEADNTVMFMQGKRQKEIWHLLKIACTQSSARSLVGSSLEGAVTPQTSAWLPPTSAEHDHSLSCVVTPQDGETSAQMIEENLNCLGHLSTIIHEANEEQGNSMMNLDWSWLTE
Protocol: as §1

JAK2 = target: T6, JAK2 (Homo sapiens, UniProt O60674); experiment: Kinase Profiler; type: biochemical; settings: STF-31 10 μM
T6 construct: purchased Millipore Kinase Profiler
T6 sequence (O60674 whole entry, species assumed): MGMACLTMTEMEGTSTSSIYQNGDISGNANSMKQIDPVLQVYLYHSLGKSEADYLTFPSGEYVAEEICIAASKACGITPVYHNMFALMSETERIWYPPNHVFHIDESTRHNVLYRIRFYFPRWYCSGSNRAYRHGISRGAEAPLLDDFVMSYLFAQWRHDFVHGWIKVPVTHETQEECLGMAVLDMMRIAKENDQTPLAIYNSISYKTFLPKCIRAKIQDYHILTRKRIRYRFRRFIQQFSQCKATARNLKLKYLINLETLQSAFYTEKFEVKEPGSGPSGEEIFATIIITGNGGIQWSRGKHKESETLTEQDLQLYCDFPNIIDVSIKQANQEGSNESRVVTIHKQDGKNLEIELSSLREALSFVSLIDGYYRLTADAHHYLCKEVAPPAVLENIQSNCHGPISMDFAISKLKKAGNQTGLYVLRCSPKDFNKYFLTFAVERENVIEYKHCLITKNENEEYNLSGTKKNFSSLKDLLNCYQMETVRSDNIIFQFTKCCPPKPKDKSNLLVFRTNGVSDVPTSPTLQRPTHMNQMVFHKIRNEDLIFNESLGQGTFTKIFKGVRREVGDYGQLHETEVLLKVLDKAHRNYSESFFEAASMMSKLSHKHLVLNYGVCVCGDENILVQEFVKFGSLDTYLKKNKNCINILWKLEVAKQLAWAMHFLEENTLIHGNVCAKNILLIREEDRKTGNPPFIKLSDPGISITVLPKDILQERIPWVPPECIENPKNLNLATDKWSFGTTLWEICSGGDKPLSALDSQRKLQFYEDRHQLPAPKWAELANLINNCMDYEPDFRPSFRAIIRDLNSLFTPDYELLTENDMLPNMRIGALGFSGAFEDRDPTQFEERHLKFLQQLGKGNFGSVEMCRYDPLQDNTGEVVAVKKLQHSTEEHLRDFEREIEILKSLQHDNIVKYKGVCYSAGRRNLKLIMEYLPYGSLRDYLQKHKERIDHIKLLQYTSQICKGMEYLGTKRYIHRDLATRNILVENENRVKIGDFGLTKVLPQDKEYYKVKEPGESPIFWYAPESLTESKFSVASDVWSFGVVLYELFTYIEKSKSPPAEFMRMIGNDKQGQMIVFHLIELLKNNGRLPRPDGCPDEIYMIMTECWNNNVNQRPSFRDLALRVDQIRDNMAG
Protocol: as §1

MSK1 = target: T7, MSK1 (Homo sapiens, UniProt O75582); experiment: Kinase Profiler; type: biochemical; settings: STF-31 10 μM
T7 construct: purchased Millipore Kinase Profiler
T7 sequence (O75582 whole entry, species assumed): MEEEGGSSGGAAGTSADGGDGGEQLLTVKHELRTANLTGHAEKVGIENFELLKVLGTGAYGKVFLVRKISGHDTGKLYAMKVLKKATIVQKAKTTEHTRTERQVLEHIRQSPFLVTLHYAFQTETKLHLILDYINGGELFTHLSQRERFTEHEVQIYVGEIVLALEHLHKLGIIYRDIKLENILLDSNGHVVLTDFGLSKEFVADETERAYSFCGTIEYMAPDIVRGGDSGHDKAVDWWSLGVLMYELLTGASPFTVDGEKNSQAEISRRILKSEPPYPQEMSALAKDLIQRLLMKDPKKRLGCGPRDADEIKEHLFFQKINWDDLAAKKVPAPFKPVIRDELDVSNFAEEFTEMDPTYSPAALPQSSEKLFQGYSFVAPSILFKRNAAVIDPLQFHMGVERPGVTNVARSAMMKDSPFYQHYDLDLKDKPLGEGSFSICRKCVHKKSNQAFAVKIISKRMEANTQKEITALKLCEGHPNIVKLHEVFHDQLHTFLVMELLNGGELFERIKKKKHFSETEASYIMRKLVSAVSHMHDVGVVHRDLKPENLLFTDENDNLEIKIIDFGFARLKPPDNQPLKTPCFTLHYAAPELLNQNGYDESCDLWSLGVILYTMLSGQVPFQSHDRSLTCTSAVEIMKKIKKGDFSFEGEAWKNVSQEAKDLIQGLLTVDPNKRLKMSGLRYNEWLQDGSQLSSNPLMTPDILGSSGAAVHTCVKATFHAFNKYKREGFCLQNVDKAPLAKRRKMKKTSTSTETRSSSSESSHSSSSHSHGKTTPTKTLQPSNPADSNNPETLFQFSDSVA
Protocol: as §1

SAPK2a = target: T8, SAPK2a (Homo sapiens, UniProt Q16539); experiment: Kinase Profiler; type: biochemical; settings: STF-31 10 μM
T8 construct: purchased Millipore (Kinase Profiler service)
T8 sequence (Q16539 whole entry, species assumed): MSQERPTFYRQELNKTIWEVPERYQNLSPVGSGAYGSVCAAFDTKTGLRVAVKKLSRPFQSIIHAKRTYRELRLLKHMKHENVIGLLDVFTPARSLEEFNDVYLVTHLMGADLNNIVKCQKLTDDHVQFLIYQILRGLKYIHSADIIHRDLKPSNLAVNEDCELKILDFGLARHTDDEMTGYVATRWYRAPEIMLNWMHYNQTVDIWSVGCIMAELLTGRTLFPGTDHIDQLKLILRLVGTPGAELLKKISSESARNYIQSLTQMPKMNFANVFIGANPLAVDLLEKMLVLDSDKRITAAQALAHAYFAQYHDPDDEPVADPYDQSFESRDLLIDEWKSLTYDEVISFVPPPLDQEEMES
Protocol: as §1

Syk = target: T9, Syk (Homo sapiens, UniProt P43405); experiment: Kinase Profiler; type: biochemical; settings: STF-31 10 μM
T9 construct: purchased Millipore (Kinase Profiler service)
Protocol: as §1

CC(C)(C)c1ccc(S(=O)(=O)NCc2ccc(C(=O)Nc3cccnc3)cc2)cc1 [STF-31]
RCC4 cells exhibiting necrotic cell death (RCC4 cells): greater than 80% | glucose uptake when HIF-1β was silenced in RCC4 cells [1]: insensitive | oxygen consumption, treated versus not treated cells [2]: no difference | kinase inhibition across 50 different kinases (50 different kinases): no significant decrease | 3-series sensitivity (sensitivity to STF-31) (UMRC6/VHL): No | Kinase response to STF-31 (Axl): 87 | Kinase response to STF-31 (DYRK2): 94 | Kinase response to STF-31 (Hck): 84 | Kinase response to STF-31 (IGF-1R): 108 | Kinase response to STF-31 (IKKα): 102 | Kinase response to STF-31 (JAK2): 113 | Kinase response to STF-31 (MSK1): 107 | Kinase response to STF-31 (SAPK2a): 127 | Kinase response to STF-31 (Syk): 94
